Laboratory results published in patent publication US6828317B2, “Antimicrobial thiadiazinone derivatives and their application for treatment of bacterial infections” (Pharmacia & Upjohn Company, priority 2002, dated 2004).
In brackets after ≈: the same amount, converted by molar mass.

Columns and labels:
S. aureus UC9213 = experiment: MIC by agar dilution, S. aureus UC9213; type: cell-based; settings: Staphylococcus aureus, Mueller Hinton agar, overnight at 35° C.
Description: (§1) The in vitro activity of compounds of the subject invention may be assessed by standard testing procedures such as the determination of minimum inhibitory concentration (MIC) by agar dilution as described in “Approved Standard. Methods for Dilution Antimicrobial Susceptibility Tests for Bacteria that Grow Aerobically,” 3rd ed., published 1993 by the National Committee for Clinical Laboratory standards, Villanova, Pa., USA. The in vitro MICs of test compounds may be determined by a standard agar dilution method. A stock drug solution of each analog is prepared in a preferred solvent, usually DMSO:H2O (1:3). Serial 2-fold dilutions of each sample are made using 1.0 ml aliquots of sterile distilled water. To each 1.0 ml aliquot of drug is added 9 ml of molten Mueller Hinton agar medium. The drug-supplemented agar is mixed, poured into 15×100 mm petri dishes, and allowed to solidify and dry prior to inoculation. Vials of each of the test microorganisms are maintained frozen in the vapor phase of a liquid nitrogen freezer. Test cultures are grown overnight at 35° C. on the medium appropriate for the microorganism. Colonies are harvested with a sterile swab, and cell suspensions are prepared in Trypticase Soy broth (TSB) to equal the turbidity of a 0.5 McFarland standard. A 1:20 dilution of each suspension is made in TSB. The plates containing the drug supplemented agar are inoculated with a 0.001 ml drop of the cell suspension using a Steers replicator, yielding approximately 10^4 to 10^5 cells per spot. The plates are incubated overnight at 35° C. Following incubation the Minimum Inhibitory Concentration (MIC μg/ml), the lowest concentration of drug that inhibits visible growth of the microorganism, is read and recorded.

H. influenzae 30063 = experiment: MIC by agar dilution, H. influenzae 30063; type: cell-based; settings: Haemophilus influenzae, Mueller Hinton agar, overnight at 35° C.
Description: as §1

S. pneumoniae UC9912 = experiment: MIC by agar dilution, S. pneumoniae UC9912; type: cell-based; settings: Streptococcus pneumoniae, Mueller Hinton agar, overnight at 35° C.
Description: as §1

Row | SMILES | MIC (S. aureus UC9213) | MIC (H. influenzae 30063) | MIC (S. pneumoniae UC9912) | melting point
1 | CC(C)(C)OC(=O)NC[C@H]1CN(c2ccc(C3=NNC(=O)CS3)c(F)c2)C(=O)O1 [Example 20, N-{3-[3-Fluoro-4-(5-oxo-5,6-dihydro-4H-[1,3,4]thiadiazin-2-yl)-phenyl]-2-oxo-oxazolidin-5(S)-ylmethyl}-carbamic acid tert-butyl ester] | 2 µg/mL (≈ 4.71 µM) | 64 µg/mL (≈ 151 µM) | 2 µg/mL (≈ 4.71 µM) | 167 to 168 °C
2 | CCC(=O)NC[C@H]1CN(c2ccc(C3=NNC(=O)CS3)c(F)c2)C(=O)O1 [Example 15, N-{3-[3-Fluoro-4-(5-oxo-5,6-dihydro-4H-[1,3,4]thiadiazin-2-yl)-phenyl]-2-oxo-oxazolidin-5(S)-ylmethyl}-propionamide] | 1 µg/mL (≈ 2.63 µM) | 2 µg/mL (≈ 5.26 µM) | < 0.06 µg/mL | 192 to 193 °C
